Key:
Bradykinin-1 receptor [1] = target: T1, Bradykinin-1 receptor (Homo sapiens (Human), UniProt P46663); assay: Receptor Binding Assay; settings: membranes from CHO-K1 cells overexpressing Bradykinin-1 receptor; 6 nM [3H]Kallidin (Des Arg10, Leu9); read-out: B1R Binding Ki
Description: Binding assays were done with membranes from CHO-K1 cells overexpressing Bradykinin-1 receptor.
For binding, Bradykinin-1 receptor antagonist compounds were added in various concentrations in 50 mM Tris pH 7.4, 5 mM MgCl2 together with 6 nM Kallidin (Des Arg^10, Leu^9), [3,4-Prolyl-3,4-^3H(N)] (PerkinElmer, 1.85-4.44 TBq/mmol) to 40 μg membrane protein containing approximately 1 fmol Bradykinin-1 receptor and incubated for 15 min at 27° C. To determine non-specific binding 10 μM Lys-(Des-Arg^9)-Bradykinin (Bachem) was added. Membranes were harvested through GF/B (glass fiber filter; PerkinElmer) plates, equilibrated with 0.5% polyethylenimine, air dried at 50° C. for 2 hr. Radioactivity was determined by counting in a topcounter (NXT Packard). Specific binding was defined as total binding minus nonspecific binding and typically represents about 90-95% of the total binding. Antagonist activity is expressed as Ki: inhibitor concentration required for 50% inhibition of specific binding corrected for the concentration of the radioligand.

Bradykinin-1 receptor [2] = target: T1, Bradykinin-1 receptor; assay: Calcium Mobilization Assay; assay type: cell-based; settings: GeneBLAzer Bradykinin (B1)-NFAT-bla CHO-K1 cells; antagonist activity, FLIPR; read-out: Ca mobilization IC50
Description: Calcium Mobilization Assay
GeneBLAzer® Bradykinin (B1)-NFAT-bla CHO-K1 cells (from Invitrogen) stably overexpressing the human bradykinin 1 receptor were cultured in DMEM (high glucose) supplemented with 10% dialysed FBS, 1% NEAA (non essential amino acids) 1% penicillin/streptomycin, 1% G418 and 0.1 mg/ml zeocin.
For the assay cells were grown overnight in 384-well black clear flat bottom polystyrene plates (Costar) at 37° C. at 5% CO2. After washing with DMEM, 20 mM Hepes, 2.5 mM probenecid, 0.1% BSA (DMEM assay buffer) cells were loaded with 4 μM Fluo-4 in the same DMEM assay buffer for 2 hours at 30° C. Excess dye was removed and cells were washed with DMEM assay buffer. 384-well compound plates were prepared with DMEM assay buffer/0.5% DMSO with or without various concentrations of test compounds. Usually compounds were tested for agonist and antagonist activity.
Test compounds were added to the assay plate and agonist activity was monitored as fluorescence for 80 seconds with a FLIPR (488 nm excitation; 510-570 nm emission; Molecular Devices). […] Increases in intracellular calcium are reported as maximum fluorescence after agonist exposure minus basal fluorescence before exposure. Antagonist activity is indicated as inhibitor concentration required for 50% inhibition of specific calcium increases.

T1 sequence (P46663 whole entry): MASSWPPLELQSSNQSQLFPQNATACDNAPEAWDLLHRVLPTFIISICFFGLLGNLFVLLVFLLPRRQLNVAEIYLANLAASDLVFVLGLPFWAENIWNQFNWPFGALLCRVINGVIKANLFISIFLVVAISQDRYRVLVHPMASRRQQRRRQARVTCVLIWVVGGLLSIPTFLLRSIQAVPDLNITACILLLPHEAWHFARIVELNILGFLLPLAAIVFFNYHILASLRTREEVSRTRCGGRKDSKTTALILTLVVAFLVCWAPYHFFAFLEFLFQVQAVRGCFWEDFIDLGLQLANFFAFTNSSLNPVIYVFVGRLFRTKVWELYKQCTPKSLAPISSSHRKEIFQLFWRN

Ki (Bradykinin-1 receptor [1]) [nM]	IC50 (Bradykinin-1 receptor [2]) [nM]	SMILES
19.9	5.3	C[C@@H](NC(=O)C1(NC(=O)C(F)(F)F)COC1)c1ccc(-c2cc(Cl)cc(Cl)c2OCC(F)F)cc1F [Example 33, 3-(2,2,2-Trifluoro-acetylamino)-oxetane-3-carboxylic acid {(R)-1-[3′,5′-dichloro-2′-(2,2-difluoro-ethoxy)-3-fluoro-biphenyl-4-yl]-ethyl}-amide]
3.3	0.3	COc1ncc(C(=O)NC2(C(=O)N[C@H](C)c3ccc(-c4cc(Cl)cc(Cl)c4OCC(F)F)cc3F)COC2)cn1 [Example 35, 2-Methoxy-pyrimidine-5-carboxylic acid (3-{(R)-1-[3′,5′-dichloro-2′-(2,2-difluoro-ethoxy)-3-fluoro-biphenyl-4-yl]-ethylcarbamoyl}-oxetan-3-yl)-amide]
3.5	0.4	COc1cc(C(=O)NC2(C(=O)N[C@H](C)c3ccc(-c4cc(Cl)cc(Cl)c4OCC(F)F)cc3F)COC2)on1 [Example 37, 3-Methoxy-isoxazole-5-carboxylic acid (3-{(R)-1-[3′,5′-dichloro-2′-(2,2-difluoro-ethoxy)-3-fluoro-biphenyl-4-yl]-ethylcarbamoyl}-oxetan-3-yl)-amide]
8.7	3.9	Cc1nnc(C(=O)NC2(C(=O)N[C@H](C)c3ncc(-c4cc(Cl)cc(Cl)c4OCC(F)F)cc3F)COC2)o1 [Example 39, 5-Methyl-[1,3,4]oxadiazole-2-carboxylic acid [3-((R)-1-{5-[3,5-dichloro-2-(2,2-difluoro-ethoxy)-phenyl]-3-fluoro-pyridin-2-yl}-ethylcarbamoyl)-oxetan-3-yl]-amide]
1.1	0.1	COc1ncc(C(=O)NC2(C(=O)N[C@H](C)c3ncc(-c4cc(Cl)cc(Cl)c4OCC(F)F)cc3F)COC2)cn1 [Example 40, 2-Methoxy-pyrimidine-5-carboxylic acid [3-((R)-1-{5-[3,5-dichloro-2-(2,2-difluoro-ethoxy)-phenyl]-3-fluoro-pyridin-2-yl}-ethylcarbamoyl)-oxetan-3-yl]-amide]
7.1	3.6	Cc1nnsc1C(=O)NC1(C(=O)N[C@H](C)c2ncc(-c3cc(Cl)cc(Cl)c3OCC(F)F)cc2F)COC1 [Example 41, 4-Methyl-[1,2,3]thiadiazole-5-carboxylic acid [3-((R)-1-{5-[3,5-dichloro-2-(2,2-difluoro-ethoxy)-phenyl]-3-fluoro-pyridin-2-yl}-ethylcarbamoyl)-oxetan-3-yl]-amide]
119	201	COCC(=O)NC1(C(=O)N[C@H](C)c2ncc(-c3cc(Cl)cc(Cl)c3OCC(F)F)cc2F)COC1 [Example 42, 3-(2-Methoxy-acetylamino)-oxetane-3-carboxylic acid ((R)-1-{5-[3,5-dichloro-2-(2,2-difluoro-ethoxy)-phenyl]-3-fluoro-pyridin-2-yl}-ethyl)-amide]

Second part, the molecule before the results:

SMILES	Ki (Bradykinin-1 receptor [1]) [nM]	IC50 (Bradykinin-1 receptor [2]) [nM]
Cc1nc(-c2c(F)cc(Cl)cc2-c2cnc([C@@H](C)NC(=O)C3(NC(=O)c4cn(C)cn4)COC3)c(F)c2)no1 [Example 27, 1-Methyl-1H-imidazole-4-carboxylic acid [3-((R)-1-{5-[5-chloro-3-fluoro-2-(5-methyl-[1,2,4]oxadiazol-3-yl)-phenyl]-3-fluoro-pyridin-2-yl}-ethylcarbamoyl)-oxetan-3-yl]-amide]	82.6	107
Cc1nc(-c2c(F)cc(Cl)cc2-c2cnc([C@@H](C)NC(=O)C3(NC(=O)c4cncc(N)c4)COC3)c(F)c2)no1 [Example 28, 5-Amino-N-[3-((R)-1-{5-[5-chloro-3-fluoro-2-(5-methyl-[1,2,4]oxadiazol-3-yl)-phenyl]-3-fluoro-pyridin-2-yl}-ethylcarbamoyl)-oxetan-3-yl]-nicotinamide]	1.4	0.1
Cc1nc(-c2c(F)cc(Cl)cc2-c2cnc([C@@H](C)NC(=O)C3(NC(=O)c4cccnn4)COC3)c(F)c2)no1 [Example 29, Pyridazine-3-carboxylic acid [3-((R)-1-{5-[5-chloro-3-fluoro-2-(5-methyl-[1,2,4]oxadiazol-3-yl)-phenyl]-3-fluoro-pyridin-2-yl}-ethylcarbamoyl)-oxetan-3-yl]-amide]	14.1	9.4
Cc1nc(-c2c(F)cc(Cl)cc2-c2cnc([C@@H](C)NC(=O)C3(NC(=O)c4cccnc4)COC3)c(F)c2)no1 [Example 30, N-[3-((R)-1-{5-[5-Chloro-3-fluoro-2-(5-methyl-[1,2,4]oxadiazol-3-yl)-phenyl]-3-fluoro-pyridin-2-yl}-ethylcarbamoyl)-oxetan-3-yl]-nicotinamide]	1.3	0.2
COc1ncc(C(=O)NC2(C(=O)N[C@H](C)c3ccc(-c4cc(Cl)cc(F)c4-c4noc(C)n4)cc3F)COC2)cn1 [Example 31, 2-Methoxy-pyrimidine-5-carboxylic acid (3-{(R)-1-[5′-chloro-3,3′-difluoro-2′-(5-methyl-[1,2,4]oxadiazol-3-yl)-biphenyl-4-yl]-ethylcarbamoyl}-oxetan-3-yl)-amide]	0.6	< 0.032
C[C@@H](NC(=O)C1(NC(=O)c2ccno2)COC1)c1ccc(-c2cc(Cl)cc(Cl)c2OCC(F)F)cc1F [Example 32, Isoxazole-5-carboxylic acid (3-{(R)-1-[3′,5′-dichloro-2′-(2,2-difluoro-ethoxy)-3-fluoro-biphenyl-4-yl]-ethylcarbamoyl}-oxetan-3-yl)-amide]	2.3	0.2
COc1cc(C(=O)NC2(C(=O)N[C@H](C)c3ncc(-c4cc(Cl)cc(F)c4-c4nnn(C)n4)cc3F)COC2)on1 [Example 34, 3-Methoxy-isoxazole-5-carboxylic acid [3-((R)-1-{5-[5-chloro-3-fluoro-2-(2-methyl-2H-tetrazol-5-yl)-phenyl]-3-fluoro-pyridin-2-yl}-ethylcarbamoyl)-oxetan-3-yl]-amide]	2.2	0.4
COc1ncc(C(=O)NC2(C(=O)N[C@H](C)c3ncc(-c4cc(Cl)cc(F)c4-c4nnn(C)n4)cc3F)COC2)cn1 [Example 36, 2-Methoxy-pyrimidine-5-carboxylic acid [3-((R)-1-{5-[5-chloro-3-fluoro-2-(2-methyl-2H-tetrazol-5-yl)-phenyl]-3-fluoro-pyridin-2-yl}-ethylcarbamoyl)-oxetan-3-yl]-amide]	1.2	0.2
Cc1nnc(C(=O)NC2(C(=O)N[C@H](C)c3ccc(-c4cc(Cl)cc(Cl)c4OCC(F)F)cc3F)COC2)o1 [Example 38, 5-Methyl-[1,3,4]oxadiazole-2-carboxylic acid (3-{(R)-1-[3′,5′-dichloro-2′-(2,2-difluoro-ethoxy)-3-fluoro-biphenyl-4-yl]-ethylcarbamoyl}-oxetan-3-yl)-amide]	4.3	0.6
COc1cc(C(=O)NC2(C(=O)N[C@H](C)c3ccc(-c4cc(Cl)cc(F)c4-c4nnn(C)n4)cc3F)COC2)on1 [Example 43, 3-Methoxy-isoxazole-5-carboxylic acid (3-{(R)-1-[5′-chloro-3,3′-difluoro-2′-(2-methyl-2H-tetrazol-5-yl)-biphenyl-4-yl]-ethylcarbamoyl}-oxetan-3-yl)-amide]	1.4	0.1
COc1ncc(C(=O)NC2(C(=O)N[C@H](C)c3ccc(-c4cc(Cl)cc(F)c4-c4nnn(C)n4)cc3F)COC2)cn1 [Example 44, 2-Methoxy-pyrimidine-5-carboxylic acid (3-{(R)-1-[5′-chloro-3,3′-difluoro-2′-(2-methyl-2H-tetrazol-5-yl)-biphenyl-4-yl]-ethylcarbamoyl}-oxetan-3-yl)-amide]	1.1	0.1

— US8912221B2, “Biaryl amide derivatives” (Hoffmann-La Roche Inc., priority 2010, dated 2014)
